In US7511033B2, “Dihydro-benzo[B][1,4]diazepin-2-one sulfonamide derivatives” (Hoffmann-La Roche Inc., priority 2007, dated 2009):

How the values were obtained:
rat mGlu2 receptor = molecular target: T1, rat mGlu2 receptor (Rattus norvegicus, UniProt P31421); assay: [3H]-LY354740 binding on mGlu2 transfected CHO cell membranes; details: inhibition of 10 nM [3H]-LY354740 binding, room temperature, 1 hour
T1 construct: expressed in transfected cells; membranes prepared from them
Description: [^3H]-LY354740 Binding on mGlu2 Transfected CHO Cell Membranes. Transfection and Cell Culture
cDNA encoding the rat mGlu2 receptor protein in pBluescript II was subcloned into the eukaryotic expression vector pcDNA I-amp from Invitrogen Ltd (Paisley, UK). This vector construct (pcD1 mGR2) was co-transfected with a psvNeo plasmid encoding the gene for neomycin resistance, into CHO cells by a modified calcium phosphate method described by Chen & Okayama (1988). The cells were maintained in Dulbecco's Modified Eagle medium with reduced L-glutamine (1 mM final concentration), 36 mg/L L-Proline and 10% dialysed foetal calf serum from Gibco-Invitrogen; the medium was supplemented with 500 microM α-methyl-4-carboxyphenylglycine (MCPG). Selection was made in the presence of G-418 (300 ug/ml final concentration). Clones were identified by reverse transcription of 5 μg total RNA, followed by PCR using mGlu2 receptor specific primers 5′-[…]-3′ and 5′-[…]-3′ in 60 mM Tris HCl (pH 10), 15 mM (NH4)2SO4, 2 mM MgCl2, 25 units/ml Taq Polymerase with 30 cycles annealing at 60° C. for 1 min., extension at 72° C. for 30 s, and 1 min. 95° C. denaturation.
Cells, cultured as above, were harvested and washed three times with cold PBS and frozen at −80° C. The pellet was resuspended in cold 20 mM HEPES-NaOH buffer containing 10 mM EDTA (pH 7.4), and homogenized with a polytron (Kinematica, AG, Littau, Switzerland) for 10 s at 10 000 rpm. After centrifugation for 30 min. at 4° C., the pellet was washed once with cold 20 mM HEPES-NaOH buffer containing 0.1 mM EDTA, (pH 7.4). After a second centrifugation for 30 min. at 4° C. the pellet was resuspended in cold 20 mM HEPES-NaOH buffer containing 0.1 mM EDTA, (pH 7.4). Protein content was measured using the Micro BCA method from Pierce-Perbio (Rockford, Ill., USA) using bovine serum albumin as standard.
After thawing, the membranes were resuspended in cold 50 mM Tris-HCl buffer containing 2 mM MgCl2 (pH 7.4) (binding buffer). The final concentration of the membranes in the assays was 25 μg protein/ml. Inhibition experiments were performed with membranes incubated with 10 nM [^3H]-LY354740 at room temperature, for 1 hour, in presence of various concentrations of the compound to be tested. Following the incubations, membranes were filtered onto Whatmann GF/B glass fiber filters or onto GF/B Unifilter plates and washed 5 times with cold binding buffer. Non specific binding was measured in the presence of 10 μM (2S,2′R,3′R)-2-(2′3′-Dicarboxycyclopropyl)glycine (DCG IV from Tocris, Ellisville, Mo. USA). After transfer of the filters into plastic vials containing 10 ml of Ultima-gold scintillation fluid from Perkin-Elmer (Boston, Mass., USA), the radioactivity was measured by liquid scintillation in a Tri-Carb 2500 TR counter (Packard, Zürich, Switzerland). For 96-Unifilter plates the radioactivity was measured after addition of Microscint 40 scintillation fluid (Perkin Elmer, Boston Mass.) using a TopCount NXT (Packard)
The inhibition curves were fitted with a four parameter logistic equation giving IC50 values, and Hill coefficients.

T1 sequence (P31421 19-872): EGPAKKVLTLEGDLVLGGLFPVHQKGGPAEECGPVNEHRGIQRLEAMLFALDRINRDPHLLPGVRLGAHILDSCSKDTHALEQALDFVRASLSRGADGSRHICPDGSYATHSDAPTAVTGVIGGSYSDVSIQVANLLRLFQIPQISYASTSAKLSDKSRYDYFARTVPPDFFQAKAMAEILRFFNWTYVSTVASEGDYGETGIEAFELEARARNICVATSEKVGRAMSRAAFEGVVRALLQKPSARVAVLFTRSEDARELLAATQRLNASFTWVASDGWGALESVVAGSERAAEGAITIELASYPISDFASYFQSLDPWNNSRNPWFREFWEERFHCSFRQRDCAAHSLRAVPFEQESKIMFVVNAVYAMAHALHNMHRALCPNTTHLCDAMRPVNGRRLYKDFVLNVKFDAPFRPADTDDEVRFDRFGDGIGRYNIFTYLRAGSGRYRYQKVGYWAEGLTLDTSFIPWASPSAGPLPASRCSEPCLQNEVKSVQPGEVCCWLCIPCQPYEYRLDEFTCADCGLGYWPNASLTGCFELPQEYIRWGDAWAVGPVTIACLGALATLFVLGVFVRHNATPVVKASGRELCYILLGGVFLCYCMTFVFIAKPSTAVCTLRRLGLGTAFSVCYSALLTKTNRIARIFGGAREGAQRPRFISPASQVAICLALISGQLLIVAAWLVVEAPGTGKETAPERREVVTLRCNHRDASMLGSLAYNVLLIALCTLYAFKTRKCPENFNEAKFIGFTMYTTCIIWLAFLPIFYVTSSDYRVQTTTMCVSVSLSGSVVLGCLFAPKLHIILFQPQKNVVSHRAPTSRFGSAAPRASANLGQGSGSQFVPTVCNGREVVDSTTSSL

Structure (SMILES)	Ki (rat mGlu2 receptor) [nM]	melting point
CC(C)(C)NS(=O)(=O)c1cccc(-c2cccc(C3=Nc4ccc(C(F)(F)F)cc4NC(=O)C3)c2)c1 [Example 4, 3′-(4-Oxo-7-trifluoromethyl-4,5-dihydro-3H-benzo[b][1,4]diazepin-2-yl)-biphenyl-3-sulfonic acid tert-butylamide]	12	179 to 181 °C
CCOc1cc2c(cc1C(F)(F)F)NC(=O)CC(c1cccc(-c3cccc(S(N)(=O)=O)c3)c1)=N2 [Example 10, 3′-(8-Ethoxy-4-oxo-7-trifluoromethyl-4,5-dihydro-3H-benzo[b][1,4]diazepin-2-yl)-biphenyl-3-sulfonic acid amide]	2.7	210 to 220 °C (dec.)
NS(=O)(=O)c1cccc(-c2cccc(C3=Nc4ccc(C(F)(F)F)cc4NC(=O)C3)c2)c1 [Example 8, 3′-(4-Oxo-7-trifluoromethyl-4,5-dihydro-3H-benzo[b][1,4]diazepin-2-yl)-biphenyl-3-sulfonic acid amide]	1.7	170 °C (dec.)
NS(=O)(=O)c1cccc(-c2cccc(C3=Nc4ccc(-c5ccccc5F)cc4NC(=O)C3)c2)c1 [Example 17, 3′-[7-(2-Fluoro-phenyl)-4-oxo-4,5-dihydro-3H-benzo[b][1,4]diazepin-2-yl]-biphenyl-3-sulfonic acid amide]	2.2	230 to 232 °C
CCOc1cc2c(cc1C(F)(F)F)NC(=O)CC(c1cccc(-c3ccc(S(=O)(=O)NC(C)(C)C)cc3)c1)=N2 [Example 7, 3′-(8-Ethoxy-4-oxo-7-trifluoromethyl-4,5-dihydro-3H-benzo[b][1,4]diazepin-2-yl)-biphenyl-4-sulfonic acid tert-butylamide]	30	> 260 °C
Cc1cc2c(cc1C(F)(F)F)NC(=O)CC(c1cccc(-c3cccc(S(=O)(=O)NC(C)(C)C)c3)c1)=N2 [Example 2, 3′-(8-Methyl-4-oxo-7-trifluoromethyl-4,5-dihydro-3H-benzo[b][1,4]diazepin-2-yl)-biphenyl-3-sulfonic acid tert-butylamide]	20	133 °C (dec.)
CCOc1cc2c(cc1C(F)(F)F)NC(=O)CC(c1cccc(-c3ccc(S(N)(=O)=O)cc3)c1)=N2 [Example 11, 3′-(8-Ethoxy-4-oxo-7-trifluoromethyl-4,5-dihydro-3H-benzo[b][1,4]diazepin-2-yl)-biphenyl-4-sulfonic acid amide]	3	245 to 250 °C (dec.)
CCOc1cc2c(cc1C(F)(F)F)NC(=O)CC(c1cccc(-c3cccc(S(=O)(=O)NC(C)(C)C)c3)c1)=N2 [Example 6, 3′-(8-Ethoxy-4-oxo-7-trifluoromethyl-4,5-dihydro-3H-benzo[b][1,4]diazepin-2-yl)-biphenyl-3-sulfonic acid tert-butylamide]	9	215 to 218 °C
CC(C)CNc1cc2c(cc1C(F)(F)F)NC(=O)CC(c1cccc(-c3ccc(S(N)(=O)=O)cc3)c1)=N2 [Example 18, 3′-(8-Isobutylamino-4-oxo-7-trifluoromethyl-4,5-dihydro-3H-benzo[b][1,4]diazepin-2-yl)-biphenyl-4-sulfonic acid amide]	21	
NS(=O)(=O)c1ccc(-c2cccc(C3=Nc4ccc(C(F)(F)F)cc4NC(=O)C3)c2)cc1 [Example 9, 3′-(4-Oxo-7-trifluoromethyl-4,5-dihydro-3H-benzo[b][1,4]diazepin-2-yl)-biphenyl-4-sulfonic acid amide]	3	195 to 210 °C (dec.)
Cc1cc2c(cc1C(F)(F)F)NC(=O)CC(c1cccc(-c3cccc(S(N)(=O)=O)c3)c1)=N2 [Example 3, 3′-(8-Methyl-4-oxo-7-trifluoromethyl-4,5-dihydro-3H-benzo[b][1,4]diazepin-2-yl)-biphenyl-3-sulfonic acid amide]	0.9	235 to 239 °C (dec.)
NS(=O)(=O)c1ccc(-c2cccc(C3=Nc4ccc(-c5ccccc5F)cc4NC(=O)C3)c2)cc1 [Example 16, 3′-[7-(2-Fluoro-phenyl)-4-oxo-4,5-dihydro-3H-benzo[b][1,4]diazepin-2-yl]-biphenyl-4-sulfonic acid amide]	5.6	240 to 250 °C (dec.)
CC(C)CNc1cc2c(cc1C(F)(F)F)NC(=O)CC(c1cccc(-c3cccc(S(N)(=O)=O)c3)c1)=N2 [Example 19, 3′-(8-Isobutylamino-4-oxo-7-trifluoromethyl-4,5-dihydro-3H-benzo[b][1,4]diazepin-2-yl)-biphenyl-3-sulfonic acid amide]	3.6	251 °C (dec.)
Cc1cc2c(cc1C(F)(F)F)NC(=O)CC(c1cccc(-c3ccc(S(N)(=O)=O)cc3)c1)=N2 [Example 1, 3′-(8-Methyl-4-oxo-7-trifluoromethyl-4,5-dihydro-3H-benzo[b][1,4]diazepin-2-yl)-biphenyl-4-sulfonic acid amide]	1.9	> 260 °C
CN(C)c1cc2c(cc1C(F)(F)F)NC(=O)CC(c1cccc(-c3cccc(S(N)(=O)=O)c3)c1)=N2 [Example 13, 3′-(8-Dimethylamino-4-oxo-7-trifluoromethyl-4,5-dihydro-3H-benzo[b][1,4]diazepin-2-yl)-biphenyl-3-sulfonic acid amide]	1.2	258 °C (dec.)
CC(C)CN(C)c1cc2c(cc1C(F)(F)F)NC(=O)CC(c1cccc(-c3ccc(S(N)(=O)=O)cc3)c1)=N2 [Example 14, 3′-[8-(Isobutyl-methyl-amino)-4-oxo-7-trifluoromethyl-4,5-dihydro-3H-benzo[b][1,4]diazepin-2-yl]-biphenyl-4-sulfonic acid amide]	17	236 °C (dec.)
CN(C)c1cc2c(cc1C(F)(F)F)NC(=O)CC(c1cccc(-c3ccc(S(N)(=O)=O)cc3)c1)=N2 [Example 12, 3′-(8-Dimethylamino-4-oxo-7-trifluoromethyl-4,5-dihydro-3H-benzo[b][1,4]diazepin-2-yl)-biphenyl-4-sulfonic acid amide]	3.1	246 °C (dec.)
CC(C)(C)NS(=O)(=O)c1ccc(-c2cccc(C3=Nc4ccc(C(F)(F)F)cc4NC(=O)C3)c2)cc1 [Example 5, 3′-(4-Oxo-7-trifluoromethyl-4,5-dihydro-3H-benzo[b][1,4]diazepin-2-yl)-biphenyl-4-sulfonic acid tert-butylamide]	16	229 to 233 °C
CC(C)CN(C)c1cc2c(cc1C(F)(F)F)NC(=O)CC(c1cccc(-c3cccc(S(N)(=O)=O)c3)c1)=N2 [Example 15, 3′-[8-(Isobutyl-methyl-amino)-4-oxo-7-trifluoromethyl-4,5-dihydro-3H-benzo[b][1,4]diazepin-2-yl]-biphenyl-3-sulfonic acid amide]	8.7	232 °C (dec.)
